# Laboratory results reported in patent publication US8809345B2, “6-cycloalkyl-pyrazolopyrimidinones for the treatment of CNS disorders” (Boehringer Ingelheim International GmbH, priority 2011, dated 2014).
# Key:
# PDE1C = PDE1C (Homo sapiens, UniProt Q14123); assay: PDE1C assay, run analogously to the PDE9A2 assay; type: biochemical; settings: ratio PDE1C vs PDE9A2
# Source text: The reaction can be stopped by applying the same inhibitor as the one that is outlined above (1-(2-Chlorophenyl)-6-[(2R)-3,3,3-trifluoro-2-methyl-propyl]-1,5-dihydro-4H-pyrazolo[3,4-d]pyrimidine-4-one).
# (§1) IC50 can be calculated with GraphPadPrism or other suitable software setting the positive control as 100 and the negative control as 0. For calculation of IC50, dilutions of the test compounds […] are selected and tested following the aforementioned protocol.
# Selectivity is the ratio (IC50 for PDE1C inhibition [nanomolar (nM)])/(IC50 for PDE9A2 inhibition [nanomolar (nM)]).
# human PDE9A2 = biological target: T1, human PDE9A2 (Homo sapiens, UniProt O76083); assay: PDE9A2 enzymatic activity assay (scintillation proximity assay); type: biochemical; settings: SPA, lysate of SF9 cells expressing human PDE9A2, 20 nanomolar cGMP
# T1 construct: made in house; host or cells: Sf9 insect cells (crude lysate, not purified)
# Description: The total protein amount included in the assay varied upon infection and production efficacy of the SF9 cells and lay in the range of 0.1-100 ng.
# The assays were run in 384-well format. The test reagents as well as the enzyme and the substrate were diluted in assay buffer. The assay buffer contained 50 mM Tris, 8.3 mM MgCl2, 1.7 mM EGTA, 0.1% BSA, 0.05% Tween 20; the pH of assay buffer was adjusted to 7.5.
# as §1
# human PDE9A = human PDE9A (Homo sapiens, UniProt O76083); settings: isolated enzyme, concentrations of up to 100 micromolar (μM); cited from earlier work
# Murine PDE9A = biological target: T2, Murine PDE9A (Mus musculus, UniProt O70628); settings: concentrations below 200 micromolar; cited from earlier work
# T2 sequence (O70628 1-534): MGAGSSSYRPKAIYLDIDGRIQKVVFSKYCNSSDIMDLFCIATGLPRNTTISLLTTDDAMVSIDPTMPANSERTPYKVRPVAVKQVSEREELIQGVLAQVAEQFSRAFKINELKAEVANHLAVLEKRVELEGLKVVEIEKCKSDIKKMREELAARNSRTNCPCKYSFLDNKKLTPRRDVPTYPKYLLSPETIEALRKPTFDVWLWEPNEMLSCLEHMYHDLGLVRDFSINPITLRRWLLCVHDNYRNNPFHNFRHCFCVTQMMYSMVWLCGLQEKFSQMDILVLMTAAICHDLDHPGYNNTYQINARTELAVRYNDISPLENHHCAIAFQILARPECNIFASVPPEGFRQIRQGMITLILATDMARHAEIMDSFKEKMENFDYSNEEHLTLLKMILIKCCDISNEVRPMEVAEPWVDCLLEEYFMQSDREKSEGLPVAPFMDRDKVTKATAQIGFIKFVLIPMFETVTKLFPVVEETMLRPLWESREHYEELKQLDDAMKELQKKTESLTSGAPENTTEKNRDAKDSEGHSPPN
# Chain of human PDE9A (O76083 whole entry): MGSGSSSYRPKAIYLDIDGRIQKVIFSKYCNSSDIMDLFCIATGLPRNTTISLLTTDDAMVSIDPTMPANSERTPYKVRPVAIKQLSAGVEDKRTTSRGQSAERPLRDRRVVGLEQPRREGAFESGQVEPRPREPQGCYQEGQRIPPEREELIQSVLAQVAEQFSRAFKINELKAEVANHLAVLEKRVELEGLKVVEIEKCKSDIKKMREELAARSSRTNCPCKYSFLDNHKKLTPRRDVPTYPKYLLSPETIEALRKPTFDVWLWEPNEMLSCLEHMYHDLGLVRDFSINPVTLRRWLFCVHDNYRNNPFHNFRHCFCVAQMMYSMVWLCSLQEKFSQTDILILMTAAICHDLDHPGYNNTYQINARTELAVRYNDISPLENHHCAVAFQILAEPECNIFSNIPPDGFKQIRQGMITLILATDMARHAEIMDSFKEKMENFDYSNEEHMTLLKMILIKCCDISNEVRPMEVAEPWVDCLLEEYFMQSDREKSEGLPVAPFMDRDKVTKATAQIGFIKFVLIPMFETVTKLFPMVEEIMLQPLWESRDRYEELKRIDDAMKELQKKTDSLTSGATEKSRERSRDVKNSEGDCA
# T1 sequence (O76083 1-533 isoform O76083-2): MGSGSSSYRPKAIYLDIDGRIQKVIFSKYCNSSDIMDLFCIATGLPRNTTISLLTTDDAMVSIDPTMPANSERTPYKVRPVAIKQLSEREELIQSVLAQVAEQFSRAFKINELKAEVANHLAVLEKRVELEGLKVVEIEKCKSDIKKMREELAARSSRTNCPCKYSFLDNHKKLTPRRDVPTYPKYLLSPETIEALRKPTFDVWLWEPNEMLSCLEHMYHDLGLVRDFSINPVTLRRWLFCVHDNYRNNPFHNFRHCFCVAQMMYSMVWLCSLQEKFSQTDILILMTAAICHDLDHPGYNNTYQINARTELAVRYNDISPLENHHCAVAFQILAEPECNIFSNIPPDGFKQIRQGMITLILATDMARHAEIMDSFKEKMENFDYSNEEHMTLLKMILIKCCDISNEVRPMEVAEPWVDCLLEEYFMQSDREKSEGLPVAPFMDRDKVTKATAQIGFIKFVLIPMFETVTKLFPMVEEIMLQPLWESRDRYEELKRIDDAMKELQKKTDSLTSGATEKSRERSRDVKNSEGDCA
Compound,Selectivity (IC50 for PDE1C inhibition / IC50 for PDE9A2 inhibition) (PDE1C),IC50 (human PDE9A2) [nM],inhibition of human PDE9A (human PDE9A),inhibition of murine PDE9A (Murine PDE9A)
O=c1[nH]c([C@@H]2CC[C@H]2c2cn3ccccc3n2)nc2c1cnn2C1CCC(F)(F)CC1 (racemic) [Example 4],123,6,,
O=c1[nH]c([C@@H]2CC[C@H]2c2cn3ccc(Cl)cc3n2)nc2c1cnn2C1CCC(F)(F)CC1 (racemic) [Example 5],40,10,,
CC(C)Cn1c(=O)n(C)c(=O)c2[nH]cnc21 [IBMX],,,no inhibition,not inhibited
CC(=O)Nc1ccc(-c2c[nH]c(=O)cn2)cc1 [SKF94120],,,no inhibition,
OCCN(CCO)c1nc(N2CCCCC2)c2nc(N(CCO)CCO)nc(N3CCCCC3)c2n1 [dipyridamole],,,no inhibition,
COc1ccc(C2CNC(=O)C2)cc1OC1CCCC1 (stereo not shown) [rolipram],,,no inhibition,
CCOC(=O)C1=C[C@]2(CC)CCCN3CCc4c(n1c1ccccc41)[C@@H]32 [vinpocetine],,,no inhibition,
